Source: patent publication US9173383B2, “Recombinant non-human mammalian model for hepatitis infection and immunopathogenesis” (The University of North Carolina at Chapel Hill, priority 2008, dated 2015)

B1: chicken ovalbumin protein: chicken ovalbumin protein used as immunization antigen (protein, UniProt P01012 2-386, looked up)
Ovalbumin: GSIGAASMEFCFDVFKELKVHHANENIFYCPIAIMSALAMVYLGAKDSTRTQINKVVRFDKLPGFGDSIEAQCGTSVNVHSSLRDILNQITKPNDVYSFSLASRLYAEERYPILPEYLQCVKELYRGGLEPINFQTAADQARELINSWVESQTNGIIRNVLQPSSVDSQTAMVLVNAIVFKGLWEKAFKDEDTQAMPFRVTEQESKPVQMMYQIGLFRVASMASEKMKILELPFASGTMSMLVLLPDEVSGLEQLESIINFEKLTEWTSSNVMEERKIKVYLPRMKMEEKYNLTSVLMAMGITDVFSSSANLSGISSAESLKISQAVHAAHAEINEAGREVVGSAEAGVDAASVSEEFRADHPFLFCIKHIATNAVLFFGRCVSP

What was measured:
[1] = tested on: 293T cells transfected with FKBP-Caspase 8; test: Inducible cell killing in 293T cells co-transfected with eGFP and CMV-promoter driven FKBP-Casp8 (7AAD FACS); format: cell-based
Description: FIG. 4. Generation of the FKBP-Casp8 fusion gene with inducible cell killing activity. (A) Inducible activation of Caspase 8 through dimerization. The chemical dimerizer AP20187 causes dimerization/activation of Caspase 8 through interaction of adjacent FKBP binding sites. M, myristoylation signal; FKBP, FK506 binding domain; caspase, human activated caspase 8 (fragment Ser217-Aps479. ref) was cloned into the pC4M-Fv2E vector (Ariad Pharmaceuticals) to express the FKBP2-Casp8 fusion protein whose activation is induced by dimerization with AP20187. (B-C) Dose-dependent induction of apoptosis in cells transfected with FKBP-Caspase 8. 293T cells were co-transfected with plasmids expressing eGFP alone, or with CMV-promoter driven FKBP-Casp8. Transfected cells were cultured for 30 hours and then various amounts of AP20187 dimerizer was added. The cells were then cultured for 24 hours, harvested, stained with 7AAD, and analyzed by FACS for GFP and 7AAD. (B) GFP+ (transfected) cells were gated and the percentage of dead cells (7AAD+) was analyzed. (C) GFP− (untransfected bystander) cells were similarly analyzed. At least 3 independent experiments are repeated.
The FKBP-Caspase8 fusion gene with inducible cell killing activity was constructed (FIG. 4; and Chang et al. 2003. Activation of procaspases by FK506 binding protein-mediated oligomerization. Sci STKE 2003:PL1). […] Therefore, FKBP-Casp8 activation by AP20187 kills target cells expressing the gene but not bystander cells, an important point for depleting specific target cells in vivo.

HepG2 cells = test: Hepatocyte-specific apoptosis with Alb-FKBP-Casp8 in HepG2 cells (7AAD FACS); format: cell-based; settings: AP20187 2 nM, 24 hours
Description: (§1) FIG. 5. Generation of Alb-FKBP-Casp8 transgenic DKO (AFC8/DKO) mice. (A) The Alb-FKBP-Casp8 transgene structure and AFC8/DKO-hu HSC/Hep mice: the FKBP2Casp8 fusion gene was cloned into the liver specific transgenic construct with the Albumin promoter (see Heckel et al. 1990. Neonatal bleeding in transgenic mice expressing urokinase-type plasminogen activator. Cell 62:447-56). (B) Hepatocyte-specific apoptosis with expression from the albumin promoter/enhancer. […] As described in FIG. 6B, the FKBP-Casp8 gene controlled by CMV enhancer or the hepatocyte-specific albumin promoter was co-transfected with GFP-expressing plasmid in 293T and HepG2 cells. Transfected cells were cultured for 30 hours and AP20187 dimerizer (2 nM) was added to the culture medium. The cells were then cultured for 24 hours, harvested, stained with 7AAD, and analyzed for GFP and 7AAD. GFP+ cells were analyzed for 7AAD uptake (dead cells). (C) Generation of Alb-FKBP-Casp8/DKO transgenic mice. Standard transgenic mouse procedure was used to inject the transgene construct into fertilized DKO embryos. In the initial screening of 11 mice from two injections, one transgenic founder was identified. […]

293T cells = test: Hepatocyte-specific apoptosis with Alb-FKBP-Casp8 in 293T cells (7AAD FACS); format: cell-based; settings: AP20187 2 nM, 24 hours
Description: as §1

murine hepatocytes = test: Dimer injection in AFC8/DKO transgenic mice: mouse liver damage (plasma ALT, H&E); format: in vivo
Method: (§2) FIG. 9. […] AFC8/DKO transgenic mice were treated with AP20187 (5 μg/g). A. Plasma ALT levels were measured at 24 hr and 72 hr (and 3-6 days, not shown) post treatment. […] Two non-TG DKO mice were used as controls (dashed line, background). B. Livers were harvested at 24 h after the 2nd injection and H&E stained. […] V, vein. C. […] AFC8/DKO or DKO mice were treated with AP20187 (5 μg/g) one hour prior to intra-splenic injection of human hepatocytes (2×10e6/mouse). Sera were collected at 80 days post transfer and human albumin levels were determined by ELISA. […] AFC8/DKO transgenic mice were treated with AP20187 (5 μg/g). Plasma ALT levels were measured at 24 hr and 72 hr (and 3-6 days, not shown) post treatment (FIG. 9A). […] Two non-TG DKO mice were used as controls (dashed line, background). Livers were harvested at 24 h after the 2nd injection and H&E stained (FIG. 9B). […] V, vein. […] AFC8/DKO or DKO mice were treated with AP20187 (5 μg/g) one hour prior to intra-splenic injection of human hepatocytes (2×10e6/mouse). Sera were collected at 80 days post transfer and human albumin levels were determined by ELISA.

[2] = tested on: human hepatocyte engraftment; test: Human hepatocyte engraftment in AP20187-treated AFC8/DKO mice (human albumin ELISA); format: in vivo, mouse
Method: as §2

FKBP-Casp8 = settings: 0.25, 1, 4 and 10 mg/kg, peritoneal; cited from earlier work
Ova-specific human IgG = test: Immunization of DKO-hu HSC mice, Ova-specific human IgG induction; format: in vivo; settings: DKO-hu HSC mouse
Description: FIG. 8. Antigen-Fc fusion proteins give enhanced antigen-specific IgG induction in vivo.
Human IgG+ B cells were increased by activating human T cells in the spleen in vitro with anti-CD3/CD28 mAb (FIG. 7). […] Ova-specific human IgG induction is enhanced by using the fusion protein between the same chicken ovalbumin protein with the Fc domain of human IgG (FIG. 8).

human T and B cells = test: Ova vaccination of DKO-hu mice, Ova-specific T and B cell responses; format: in vivo, mouse; settings: 3 weeks post vaccination
Method: FIG. 1. Long-term, stable human hemato-lymphopoiesis in HSC-DKO Mice. Human fetal liver CD34+ cells were injected intra-hepatically in newborn (1-3 days old) DKO mice. At 12-50 weeks post transplant, the human CD45^+, murine CD45^− cells in PBMC, lymph node (LN), spleen, bone marrow and thymus were analyzed by multi-color FACS. A: Human CD45 reconstitution (12-16 weeks old) in 5 cohorts of DKO-hu HSC mice from 5 independent donor fetal livers. Shown is average % human CD45+ cells in PB of reconstituted DKO-hu HSC mice. Error bars indicate standard errors of each cohort (n=numbers of mice/cohort). B: Human cells reconstitution in PBMC of the transplanted mice. […] Human T cells from a DKO-hu mouse at 50 weeks are analyzed for expression of CD45RO and CD69. […] Human T proliferation is measured by 3-H thymidine incorporation for 16 hr after 3 days post co-culture. […] H: DKO-hu mice are vaccinated with Ova protein and Ova-specific T cell recall response is measured at 3 weeks post vaccination. […] Human T cell proliferation is measured as above.
Human T cells are negatively selected by both mouse MHC/APC and human MHC/APC because both human and mouse antigen presenting cells (APC) are detected in the mouse thymus (see Traggiai et al. 2004. Development of a human adaptive immune system in cord blood cell-transplanted mice. Science 304:104-7). […]

[3] = various amounts of AP20187, 24 hours

Row | Molecule | effect on cells transfected with only GFP expressing gene [1] | death of GFP+/FKBP-Casp8+ (transfected) cells, 7AAD+ [1, 3] | death of GFP− (untransfected bystander) cells [1, 3] | cell killing (7AAD uptake of GFP+ cells) with Alb-FKBP-Casp8 (HepG2 cells) | cell killing (7AAD uptake of GFP+ cells) with Alb-FKBP-Casp8 (293T cells) | liver H&E staining (murine hepatocytes; 24 h after the 2nd injection, TG livers) | mouse liver damage (murine hepatocytes; AFC8/DKO mice, 5 μg/g) | plasma ALT levels (murine hepatocytes; second injection 6 days after 1st injection, 5 μg/g) | human albumin levels in sera (ELISA) ([2]; 5 μg/g one hour prior to intra-splenic human hepatocytes, 80 days post transfer) | enhanced human hepatocyte engraftment ([2]; dimer injection in AFC8/DKO mice) | enhanced human hepatocyte engraftment ([2]; one injection of dimerizers) [×] | inducing Caspase8 activation and target cell depletion (FKBP-Casp8) | toxicity in mice (FKBP-Casp8) | Ova-specific human IgG (Ova-specific human IgG) | Ova-specific human T and B cell responses (human T and B cells)
1 | CC[C@H](C(=O)N1CCCC[C@H]1C(=O)O[C@H](CCc1ccc(OC)c(OC)c1)c1cccc(OCC(=O)NCC(CNC(=O)COc2cccc([C@@H](CCc3ccc(OC)c(OC)c3)OC(=O)[C@@H]3CCCCN3C(=O)[C@@H](CC)c3cc(OC)c(OC)c(OC)c3)c2)CN(C)C)c1)c1cc(OC)c(OC)c(OC)c1 [AP20187] | no detectable effect | led to death of GFP+/FKBP-Casp8+ cells | not GFP− bystander cells | functions in HepG2 | not 293T cells | Accumulation of fat droplets | transient mouse liver damage | elevated ALT levels | Enhanced human albumin levels | 50-100 × | 100 | effective | No toxicity is observed | – | –
2 | B1 | – | – | – | – | – | – | – | – | – | – | – | – | – | very low levels | induces Ova-specific human T and B cell responses
